Literature values, collected in patent US20100247645A1 (priority 2007, published 2010).

Details: class 3 = high solubility, low permeability

Question: With COCCCOc1cc(C[C@@H](C[C@H](N)[C@@H](O)C[C@H](C(=O)NCC(C)(C)C(N)=O)C(C)C)C(C)C)ccc1OC [Aliskiren, 2(S),4(S),5(S),7(S)—N-(3-amino-2,2-dimethyl-3-oxopropyl)-2,7-di(1-methylethyl)-4-hydroxy-5-amino-8-[4-methoxy-3-(3-methoxy-propoxy)phenyl]-octanamide] as the compound, how does the “BCS (biopharmaceutical classification system) class” value read?
Answer: Its value is “class 3”.
